One assay has as its system YAP-TEAD interaction. In words: SK-HEP-1 reporter assay (8xTEAD responsive elements driving NanoLuc luciferase). It counts as cell-based. The essentials:
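SK-HEP-1 cells stably carrying 8×TEAD-driven NanoLuc treated in duplicate, 10-point dose from 30 μM final, 0.3% DMSO, 24 h at 37° C. Luminescence after NanoGlo lysis/substrate addition; IC50 calculated from dose response.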
In general terms: In a reporter assay the amount or activity of a reporter protein is the signal.

For a further assay, the system named is NCI-H226 cells. Kind of assay: Viability assay in NCI-H226 (Yap-dependent) cells, CyQuant. In kind it is cell-based, human. On the procedure: (§1) Viability Assay in NCI-H226 (Yap-Dependent) and SW620 Yap KO (Yap Independent) Cells
(§2) The ability of YAP-TEAD inhibitors to inhibit tumor cell growth was evaluated using two different cell lines: NCI-H226, which is a YAP dependent cell line, and SW620 cells, where YAP and TAZ were knocked out using CRISPR to generate a YAP independent cell line.
(§3) For the assay, cells were treated in duplicates with the test compounds in a 10-point dose, 1:3 dilution steps, with the top concentration starting at 30 μM (final concentration in assay). After a 96 hour incubation at 37° C., 95% rH, and 5% CO2, a cell-permeant DNA-binding dye that stains only healthy cells (CyQUANT®, Promega) was added to the cells, allowing the quantification of cell viability.
(§4) Cell Media: The NCI-H226 cells were cultured in the following media: RPMI 1640, +10% FBS, +1× GlutaMAX, +10 mM HEPES, +0.5% Pen/Strep. The SW620-KO cells were cultured in the following media: DMEM/F-12, +10% FBS, +1× GlutaMAX, +10 mM HEPES, +0.5% Pen/Strep.
(§5) Reagents: The reagents used are listed below:
(§6) Cell culture: The cells were examined using an inverted microscope to check for health, cell density, etc. To dissociate adherent cells, the monolayer of cells was washed once with pre-warmed PBS. After removing the PBS, 3 ml pre-warmed Accutase was added to a F75 flask, dispersed evenly and the flask was allowed to sit in incubator for ˜4-5 minutes.
(§7) When a single cell suspension was obtained, 7 ml of prewarmed growth media was added and resuspended with the cells. The cell suspension was transferred to a sterile 15 ml conical centrifuge tube, and spun for 5 min at 300×g, RT. The supernatant was discarded and the pellet was resuspended in 10 ml of pre-warmed growth media.
(§8) The total cell count was determined, and 20 μl of the desired cell number was added to each well of a 384 well plate using a Multidrop Combi. The plates were then incubated for 24 hours at 37° C., 95% rH, and 5% CO2.
(§9) Compound treatment: 24 hours after seeding, the cells were treated with compounds.
(§10) A 1:333 dilution of compounds, diluted in DMSO, was made to get a final concentration of 0.3% DMSO per well. To transfer the compounds to the assay plate, […] was shot from Labcyte low dead volume plates to the cell plates containing 20 μl media/well with the ECHO 555 liquid handling system.
(§11) After treatment, the cells were fed with 20 μl fresh pre-warmed assay media using a Multidrop combi.
(§12) The assay plates were then incubated for 96 h at 37° C., 95% rH, and 5% CO2.
(§13) 96 h after treatment 30 μl of CyQuant® reagent was added to the assay plates using a Multidrop combi in the dark. The plates were then incubated for 1 hour at 37° C., 95% rH and 5% CO2. Thereafter, the assay plates were removed from the incubator and allowed to equilibrate to RT for 30 min in the dark without lid. Finally, they were measured using an EnVision microplate reader with a FITC bottom read program.

A further assay has as its system SW620 Yap KO cells. In words: Viability assay in SW620 Yap KO (Yap independent) cells, CyQuant. It counts as cell-based. Particulars: n.d. = value not detectable below threshold given in parentheses, ND = not determinable within the entire range. Here is the method:
as §1, §2, §3, §4, §5, §6, §7, §8, §9, §10, §11, §12, §13

Setting [1] is: Homo sapiens, SK-HEP1, SK-HEP-1 reporter assay, class symbols.
Where [2] appears, read: Homo sapiens, NCI-H226, 96 h, class symbols.
[3] abbreviates: SK-HEP-1 reporter assay, class symbols.
The mark [4] stands for this setting: Homo sapiens, SK-HEP1, SK-HEP-1 reporter assay, n.d. = value not detectable below threshold given in parentheses, ND = not determinable within the entire range.
Where [5] appears, read: Homo sapiens, NCI-H226, 96 h, n.d. = value not detectable below threshold given in parentheses.

SMILES strings stand for the structures. Counter-ions that a name gives are not always drawn.

One may read the IC50 as the concentration that inhibits the measured activity by half. On to `Cn1cc2c3cc(C(=O)N=S(C)(=O)CCO)ccc3n(-c3ccc(C(F)(F)F)cc3)c2n1` (single isomer, unassigned) [Example C73], for which the IC50 is 0.1 to 10 µM in the assay with YAP-TEAD interaction (setting [1]); 0.001 to 0.1 µM in the assay on NCI-H226 cells (setting [2]); above 30 µM in the assay on SW620 Yap KO cells (Homo sapiens, SW-620, 96 h).

Regarding `Cn1cc2c3cc(C(=O)N=[S@@](C)(=O)CCO)ccc3n(-c3ccc(C(F)(F)F)cc3)c2n1` (single isomer, unassigned) [Example C74], the IC50 with YAP-TEAD interaction (setting [1]) is 0.01 to 0.1 µM; in the assay on NCI-H226 cells (setting [2]), 0.001 to 0.1 µM; in the assay on SW620 Yap KO cells (Homo sapiens, SW-620, 96 h), above 30 µM.

As for `CC(NC(=O)c1ccc2c(c1)c1cn(C)nc1n2-c1ccc(C(F)(F)F)cc1)c1ccn[nH]1` (single isomer, unassigned) [Example C75], the figures for the IC50 with YAP-TEAD interaction (setting [3]), in the assay on NCI-H226 cells (setting [2]) and in the assay with SW620 Yap KO cells (96 h) were 0.01 to 0.1 µM, 0.001 to 0.1 µM and above 30 µM, respectively.

For the compound `CC(NC(=O)c1ccc2c(c1)c1cn(C)nc1n2-c1ccc(C(F)(F)F)cc1)c1ccn[nH]1` (single isomer, unassigned) [Example C76], the concentration for half-maximal inhibition (IC50) was 0.1 to 10 µM with YAP-TEAD interaction (setting [3]); 0.001 to 0.1 µM with NCI-H226 cells (96 h, class symbols); above 3.2 µM in the assay with SW620 Yap KO cells (96 h).

Take `COCC[C@@H](CO)NC(=O)c1ccc2c(c1)c1c(C)snc1n2-c1ccc(C(F)(F)F)cc1` (single isomer, unassigned) [Example C89]: the concentration for half-maximal inhibition (IC50) was 0.01 to 0.1 µM in the assay on YAP-TEAD interaction (setting [1]); 0.001 to 0.1 µM with NCI-H226 cells (setting [2]); above 30 µM in the assay on SW620 Yap KO cells (Homo sapiens, SW-620, 96 h).

For `Cc1snc2c1c1cc(C(=O)N=S(C)(=O)CCO)ccc1n2-c1ccc(C(F)(F)F)cc1` (single isomer, unassigned) [Example C101], the IC50 in the assay on YAP-TEAD interaction (setting [1]) is 0.01 to 0.1 µM; in the assay with NCI-H226 cells (setting [2]), 0.001 to 0.1 µM; in the assay on SW620 Yap KO cells (Homo sapiens, SW-620, 96 h) it was above 3.2 µM.

Regarding `Cc1snc2c1c1cc(C(=O)N=S(C)(=O)CCO)ccc1n2-c1ccc(C(F)(F)F)cc1` (single isomer, unassigned) [Example C102], the IC50 with YAP-TEAD interaction (setting [1]) is 0.01 to 0.1 µM; with NCI-H226 cells (setting [2]), 0.001 to 0.1 µM; in the assay on SW620 Yap KO cells (Homo sapiens, SW-620, 96 h), above 30 µM.

On to `Cc1snc2c1c1cc(C(=O)N=S(C)(=O)CCCO)ccc1n2-c1ccc(C(F)(F)F)cc1` (single isomer, unassigned) [Example C104], for which the IC50 in the assay with YAP-TEAD interaction (setting [3]) is 0.01 to 0.1 µM; in the assay on NCI-H226 cells (setting [2]), 0.001 to 0.1 µM; in the assay with SW620 Yap KO cells (Homo sapiens, SW-620, 96 h), above 3.2 µM.

Regarding `Cn1cc2c3cc(C(=O)N=[S@](=O)(CCO)Cc4cccnc4)ccc3n(-c3ccc(C(F)(F)F)cc3)c2n1` (single isomer, unassigned) [Example C188], the IC50 was above 9.5 µM in the assay on YAP-TEAD interaction (Homo sapiens, SK-HEP1, SK-HEP-1 reporter assay, n.d. = value not detectable below threshold given in parentheses) and 0.001 to 0.1 µM in the assay on NCI-H226 cells (setting [2]).

As to `Cn1cc2c3cc(C(=O)N[C@H](CCO)c4ccccn4)ccc3n(-c3ccc(C(F)(F)F)cc3)c2n1` (single isomer, unassigned) [Example C239], the IC50 was in the range of 0.1 to 10 µM in the assay on YAP-TEAD interaction (setting [1]) and 0.1 to 1 µM in the assay on NCI-H226 cells (setting [2]).

For `Cn1cc2c3cc(C(=O)O)cnc3n(-c3ccc(C(F)(F)F)cc3)c2n1` [Example 37, 4-methyl-7-[4-(trifluoromethyl)phenyl]-4,5,7,9-tetraazatricyclo[6.4.0.0^2,6]dodeca-1(8),2,5,9,11-pentaene-11-carboxylic acid], the IC50 with YAP-TEAD interaction (setting [3]) was 0.001 to 0.01 µM; in the assay with NCI-H226 cells (96 h, class symbols), above 10 µM.

`Cc1snc2c1c1cc(C(=O)NCc3ncccn3)ccc1n2-c1ccc(C(F)(F)F)cc1` [Example C63, 3-methyl-N-[(pyrimidin-2-yl)methyl]-8-[4-(trifluoromethyl)phenyl]-8H-[1,2]thiazolo[3,4-b]indole-5-carboxamide]: the IC50 with YAP-TEAD interaction (setting [1]) lay within 0.001 to 0.01 µM; in the assay with NCI-H226 cells (setting [2]) it was 0.001 to 0.1 µM.

Regarding `Cn1cc2c3cc(NS(=O)(=O)Cc4ccncc4)ccc3n(-c3ccc(C(F)(F)F)cc3)c2n1` [Example C128, N-{2-methyl-8-[4-(trifluoromethyl)phenyl]-2H,8H-pyrazolo[3,4-b]indol-5-yl}-1-(pyridin-4-yl)methanesulfonamide], the results for the IC50 in the assay on YAP-TEAD interaction (setting [4]) and in the assay with NCI-H226 cells (setting [5]) were above 10 µM and above 0.003 µM, respectively.

Consider `Cn1cc2c3cc(NS(=O)(=O)Cc4cccnc4)ccc3n(-c3ccc(C(F)(F)F)cc3)c2n1` [Example C129, N-{2-methyl-8-[4-(trifluoromethyl)phenyl]-2H,8H-pyrazolo[3,4-b]indol-5-yl}-1-(pyridin-3-yl)methanesulfonamide], for which the figures for the concentration for half-maximal inhibition (IC50) with YAP-TEAD interaction (setting [4]) and in the assay on NCI-H226 cells (setting [2]) were above 10 µM and 1 to 10 µM, respectively.

As for `Cn1cc2c3cc(NS(=O)(=O)Cc4ccccn4)ccc3n(-c3ccc(C(F)(F)F)cc3)c2n1` [Example C130, N-{2-methyl-8-[4-(trifluoromethyl)phenyl]-2H,8H-pyrazolo[3,4-b]indol-5-yl}-1-(pyridin-2-yl)methanesulfonamide], the IC50 was above 30 µM in the assay on YAP-TEAD interaction (setting [4]) and above 0.003 µM with NCI-H226 cells (setting [5]).

As to `Cn1cc2c3cc(C(=O)N4CC[C@H](O)C4)ccc3n(-c3ccc(C(F)(F)F)cn3)c2n1` [Example C151, (3S)-1-{2-methyl-8-[5-(trifluoromethyl)pyridin-2-yl]-2H,8H-pyrazolo[3,4-b]indole-5-carbonyl}pyrrolidin-3-ol], the figures for the IC50 with YAP-TEAD interaction (setting [4]) and with NCI-H226 cells (setting [2]) were above 10 µM and 0.1 to 1 µM, respectively.

As for `Cn1cc2c3cc(C(=O)/N=S4/CC(N)CO4)ccc3n(-c3ccc(C(F)(F)F)cc3)c2n1` (stereo not shown) [Example C269, N-(4-amino-1,2lambda4-oxathiolan-2-ylidene)-2-methyl-8-[4-(trifluoromethyl)phenyl]-2H,8H-pyrazolo[3,4-b]indole-5-carboxamide formate], the half-maximal inhibitory concentration (IC50) in the assay on YAP-TEAD interaction (setting [1]) was in the range of 0.1 to 10 µM.

As for `Cn1cc2c3cc(C(=O)N=S4(=O)CC(N)C4)ccc3n(-c3ccc(C(F)(F)F)cc3)c2n1` (stereo not shown) [Example C270, N-(3-amino-1-oxo-1¿6-thietan-1-ylidene)-2-methyl-8-[4-(trifluoromethyl)phenyl]-2H,8H-pyrazolo[3,4-b]indole-5-carboxamide formate], the IC50 in the assay with YAP-TEAD interaction (setting [1]) fell in the range of 0.01 to 0.1 µM.

In the assay on YAP-TEAD interaction (setting [1]), `Cn1cc2c3cc(C(=O)N=S4(=O)CC5(CNC5)C4)ccc3n(-c3ccc(C(F)(F)F)cc3)c2n1` [Example C271, 2-methyl-N-{2-oxo-2¿6-thia-6-azaspiro[3.3]heptan-2-ylidene}-8-[4-(trifluoromethyl)phenyl]-2H,8H-pyrazolo[3,4-b]indole-5-carboxamide Formate] registered an IC50 of 0.1 to 10 µM.

`Cn1cc2c3cc(C(=O)NC(CO)c4ncc[nH]4)ccc3n(-c3ccc(C(F)(F)F)cc3)c2n1` (stereo not shown) [Example C273, N-[2-hydroxy-1-(1H-imidazol-2-yl)ethyl]-2-methyl-8-[4-(trifluoromethyl)phenyl]-2H,8H-pyrazolo[3,4-b]indole-5-carboxamide trifluoroacetate]: the results for the IC50 in the assay with YAP-TEAD interaction (setting [1]) and with NCI-H226 cells (setting [2]) were 0.01 to 0.1 µM and 0.001 to 0.1 µM, respectively.

`Cn1nc2c3cc(C(=O)NC(CO)c4nncn4C)ccc3n(-c3ccc(C(F)(F)F)cc3)c2n1` (stereo not shown) [Example C274, N-[2-hydroxy-1-(4-methyl-4H-1,2,4-triazol-3-yl)ethyl]-2-methyl-4-[4-(trifluoromethyl)phenyl]-2H,4H-[1,2,3]triazolo[4,5-b]indole-7-carboxamide] came in with a 50% inhibitory concentration (IC50) in the assay on YAP-TEAD interaction (setting [1]) of 0.1 to 10 µM.

Compound `Cn1cc2c3cc(C4CC(F)(F)C(=O)N4)ccc3n(-c3ccc(C(F)(F)F)cc3)c2n1` (stereo not shown) [Example C275, 3,3-difluoro-5-{2-methyl-8-[4-(trifluoromethyl)phenyl]-2H,8H-pyrazolo[3,4-b]indol-5-yl}pyrrolidin-2-one] displayed a half-inhibitory concentration (IC50) in the assay on YAP-TEAD interaction (setting [1]) of 0.01 to 0.1 µM.

In the case of `Cn1nc2c3cc(C(=O)NC(CO)c4cscn4)ccc3n(-c3ccc(C(F)(F)F)cc3)c2n1` (stereo not shown) [Example C276, N-[2-hydroxy-1-(1,3-thiazol-4-yl)ethyl]-2-methyl-4-[4-(trifluoromethyl)phenyl]-2H,4H-[1,2,3]triazolo[4,5-b]indole-7-carboxamide], the IC50 lay in the range of 0.01 to 0.1 µM in the assay with YAP-TEAD interaction (setting [1]) and 0.001 to 0.1 µM in the assay with NCI-H226 cells (setting [2]).

(Values after patent publication US20240270748A1 (Merck Patent GmbH, priority 2021, published 2024).)
